Source: the supplement of paper PMC10307832

Experiments:
Assay in all cases: relative viability (nuclei count vs DMSO), 5 days (fraction); higher = more cells survive
[1] = system: NCI-H2342; details: first compound 0.5 µM
Outline: (§1)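 Relative viability is defined as nuclei in treated wells over nuclei in vehicle wells. Duplicate plates were run and medians reported. Lung cancer cell lines in 1536-well plates were dosed by pin tool one day after seeding, with one drug or with a fixed anchor-drug dose plus five library-drug doses (not always all listed) in √10 steps, and nuclei were counted after 5 days.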

[2] = system: NCI-H358
Outline: as §1

[3] = system: EKVX
Outline: as §1

[4] = system: HCC-15
Outline: as §1

[5] = system: SK-MES-1
Outline: as §1

[6] = system: HOP-62
Outline: as §1

[7] = system: PC-14
Outline: as §1

[8] = system: COR-L 105
Outline: as §1

[9] = system: NCI-H2170
Outline: as §1

[10] = system: NCI-H1793
Outline: as §1

[11] = system: NCI-H1355
Outline: as §1

[12] = system: NCI-H647
Outline: as §1

Question: `CC1(C)CCC(c2ccc(Cl)cc2)=C(CN2CCN(c3ccc(C(=O)NS(=O)(=O)c4ccc(N[C@H](CCN5CCOCC5)CSc5ccccc5)c(S(=O)(=O)C(F)(F)F)c4)cc3)CC2)C1` [Navitoclax] + Cc1cc(Nc2cc(N3CCN(C)CC3)nc(Sc3ccc(NC(=O)C4CC4)cc3)n2)n[nH]1 [Tozasertib] (partner 0.1 µM) was tested. Which relative viability [1] did it give?
Answer: 0.548

Question: And the relative viability ([2]; first compound 0.005 µM)?
Answer: 0.1

Question: And the relative viability ([2]; first compound 0.01581 µM)?
Answer: 0.0998

Question: And the relative viability ([2]; first compound 0.05 µM)?
Answer: 0.105

Question: What about the relative viability ([2]; first compound 0.1581 µM) of the same compound?
Answer: 0.122

Question: What about the relative viability ([2]; first compound 0.5 µM) of the same compound?
Answer: 0.109

Question: What about the relative viability ([3]; first compound 0.005 µM) of the same compound?
Answer: 0.411

Question: And the relative viability ([3]; first compound 0.01581 µM)?
Answer: 0.388

Question: What about the relative viability ([3]; first compound 0.05 µM) of the same compound?
Answer: 0.323

Question: And the relative viability ([3]; first compound 0.1581 µM)?
Answer: 0.44

Question: What about the relative viability ([3]; first compound 0.5 µM) of the same compound?
Answer: 0.294

Question: What about the relative viability ([4]; first compound 0.005 µM) of the same compound?
Answer: 0.428

Question: What about the relative viability ([4]; first compound 0.01581 µM) of the same compound?
Answer: 0.524

Question: And the relative viability ([4]; first compound 0.05 µM)?
Answer: 0.449

Question: What about the relative viability ([4]; first compound 0.1581 µM) of the same compound?
Answer: 0.481

Question: What about the relative viability ([4]; first compound 0.5 µM) of the same compound?
Answer: 0.467

Question: What about the relative viability ([5]; first compound 0.005 µM) of the same compound?
Answer: 0.853

Question: What about the relative viability ([5]; first compound 0.01581 µM) of the same compound?
Answer: 0.976

Question: What about the relative viability ([5]; first compound 0.05 µM) of the same compound?
Answer: 0.953

Question: And the relative viability ([5]; first compound 0.1581 µM)?
Answer: 0.848

Question: And the relative viability ([5]; first compound 0.5 µM)?
Answer: 0.952

Question: And the relative viability ([6]; first compound 0.005 µM)?
Answer: 0.389

Question: What about the relative viability ([6]; first compound 0.01581 µM) of the same compound?
Answer: 0.4

Question: And the relative viability ([6]; first compound 0.05 µM)?
Answer: 0.366

Question: And the relative viability ([6]; first compound 0.1581 µM)?
Answer: 0.299

Question: What about the relative viability ([6]; first compound 0.5 µM) of the same compound?
Answer: 0.374

Question: What about the relative viability ([7]; first compound 0.005 µM) of the same compound?
Answer: 0.623

Question: What about the relative viability ([7]; first compound 0.01581 µM) of the same compound?
Answer: 0.633

Question: And the relative viability ([7]; first compound 0.05 µM)?
Answer: 0.7

Question: And the relative viability ([7]; first compound 0.1581 µM)?
Answer: 0.553

Question: And the relative viability ([7]; first compound 0.5 µM)?
Answer: 0.559

Question: What about the relative viability ([8]; first compound 0.005 µM) of the same compound?
Answer: 0.353

Question: And the relative viability ([8]; first compound 0.01581 µM)?
Answer: 0.338

Question: What about the relative viability ([8]; first compound 0.05 µM) of the same compound?
Answer: 0.369

Question: And the relative viability ([8]; first compound 0.1581 µM)?
Answer: 0.348

Question: What about the relative viability ([8]; first compound 0.5 µM) of the same compound?
Answer: 0.29

Question: What about the relative viability ([9]; first compound 0.005 µM) of the same compound?
Answer: 0.716

Question: What about the relative viability ([9]; first compound 0.01581 µM) of the same compound?
Answer: 0.71

Question: And the relative viability ([9]; first compound 0.05 µM)?
Answer: 0.689

Question: And the relative viability ([9]; first compound 0.1581 µM)?
Answer: 0.684

Question: What about the relative viability ([9]; first compound 0.5 µM) of the same compound?
Answer: 0.665

Question: What about the relative viability ([10]; first compound 0.005 µM) of the same compound?
Answer: 0.338

Question: And the relative viability ([10]; first compound 0.01581 µM)?
Answer: 0.394

Question: What about the relative viability ([10]; first compound 0.1581 µM) of the same compound?
Answer: 0.278

Question: What about the relative viability ([10]; first compound 0.5 µM) of the same compound?
Answer: 0.275

Question: And the relative viability ([11]; first compound 0.005 µM)?
Answer: 0.549

Question: What about the relative viability ([11]; first compound 0.01581 µM) of the same compound?
Answer: 0.589

Question: And the relative viability ([11]; first compound 0.05 µM)?
Answer: 0.456

Question: What about the relative viability ([11]; first compound 0.1581 µM) of the same compound?
Answer: 0.585

Question: What about the relative viability ([11]; first compound 0.5 µM) of the same compound?
Answer: 0.518

Question: What about the relative viability ([12]; first compound 0.005 µM) of the same compound?
Answer: 0.301

Question: What about the relative viability ([12]; first compound 0.01581 µM) of the same compound?
Answer: 0.268

Question: What about the relative viability ([12]; first compound 0.05 µM) of the same compound?
Answer: 0.292

Question: What about the relative viability ([12]; first compound 0.1581 µM) of the same compound?
Answer: 0.27

Question: And the relative viability ([12]; first compound 0.5 µM)?
Answer: 0.251
